Measurements from publication PMC8272148, “Antioxidant Serine-(NSAID) Hybrids with Anti-Inflammatory and Hypolipidemic Potency” (Molecules, 2021).
pIC50: −log10 of the molar value. Values joined by “and” are separate entries in the source; they are usually repeats but may differ in a detail not shown here. Equal entries are not always repeated. Marks after values point to notes of the source that are not given here.

Assays:
[1] = test system: rat hepatic microsomal membrane lipid peroxidation; experiment: Inhibition of rat hepatic microsomal membrane lipid peroxidation (ferrous ascorbate induced, TBA reactive material); format: biochemical; conditions: after 45 min of incubation
Procedure: The peroxidation of the heat-inactivated rat hepatic microsomal fraction was induced by ferrous ascorbate. The studied compounds, in dimethylsulfoxide, were added at concentrations of 1 μM–1 mM. Aliquots were taken from the incubation mixture (37 °C) for 45 min. Lipid peroxidation was assessed spectrophotometrically (535/600 nm) as a 2-thiobarbituric acid reactive material. The incubation mixture and solvents were found not to interfere with the assay.

[2] = Interaction with the stable radical DPPH; conditions: DPPH 200 μM, after 30 min
Procedure: Compounds, dissolved in absolute ethanol, at concentrations of 25–200 μM, were added to an equal volume of an ethanolic solution of DPPH (final concentration 200 μM) at room temperature (22 ± 2 °C). Absorbance (517 nm) was recorded after 30 min [26]. For the calculation of percent interaction, the residual absorbance of DPPH Ai (at a fixed concentration) after its interaction with the examined compounds (at various concentrations) was compared with the control absorbance Ao, without the addition of compounds, following the equation: (1) Percent interaction=100−(Ai/Ao×100)

[3] = test system: carrageenan-induced rat paw edema; experiment: Carrageenan-induced rat paw edema; format: in vivo, Wistar rats; conditions: ip, 0.15 mmol/kg i.p., 3.5 h after carrageenan, vs controls, read-out: % Edema Reduction
Procedure: An amount of 0.1 mL of an aqueous carrageenan solution (1% w/v) was injected into the hind paw of adult Wistar rats (6 rats were used for each compound). The tested compounds (in water with a few drops of Tween 80) were administered i.p. (0.15 mmol/kg) 5 min before the carrageenan administration. The produced edema, after 3.5 h, was estimated as paw weight increase.

soybean lipoxygenase 1-B = biological target: T1, soybean lipoxygenase 1-B (Glycine max, UniProt P08170); experiment: In vitro inhibition of soybean lipoxygenase; format: biochemical; conditions: linoleic acid (100 μM) as substrate, after 7 min of incubation
T1 sequence (P08170 1-839): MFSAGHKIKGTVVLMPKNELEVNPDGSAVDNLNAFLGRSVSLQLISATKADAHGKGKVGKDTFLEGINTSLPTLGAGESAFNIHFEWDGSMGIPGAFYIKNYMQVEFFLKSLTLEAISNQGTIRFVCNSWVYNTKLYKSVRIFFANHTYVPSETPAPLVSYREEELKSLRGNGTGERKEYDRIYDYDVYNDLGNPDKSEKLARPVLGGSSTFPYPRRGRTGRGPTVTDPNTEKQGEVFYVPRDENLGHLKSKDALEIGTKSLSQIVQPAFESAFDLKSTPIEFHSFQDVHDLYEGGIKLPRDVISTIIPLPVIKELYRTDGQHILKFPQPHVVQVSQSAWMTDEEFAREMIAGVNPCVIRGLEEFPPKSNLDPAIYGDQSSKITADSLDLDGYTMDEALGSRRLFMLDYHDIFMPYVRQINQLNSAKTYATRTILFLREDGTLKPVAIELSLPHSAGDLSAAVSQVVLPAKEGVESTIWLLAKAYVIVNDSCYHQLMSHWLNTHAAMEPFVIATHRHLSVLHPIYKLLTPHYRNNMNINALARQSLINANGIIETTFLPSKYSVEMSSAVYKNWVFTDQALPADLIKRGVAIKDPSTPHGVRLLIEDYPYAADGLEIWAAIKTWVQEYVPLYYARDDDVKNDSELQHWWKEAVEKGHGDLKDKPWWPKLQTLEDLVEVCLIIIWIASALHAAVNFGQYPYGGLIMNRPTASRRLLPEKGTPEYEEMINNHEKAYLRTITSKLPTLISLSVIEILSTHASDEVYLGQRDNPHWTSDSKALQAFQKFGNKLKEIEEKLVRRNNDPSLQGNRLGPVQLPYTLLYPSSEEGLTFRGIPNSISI
Procedure: The reaction mixture contained the test compounds, dissolved in absolute ethanol (0.1 mL) at various concentrations, or the solvent (control, 0.1 mL), soybean lipoxygenase dissolved in 0.9% NaCl solution (250 u/mL, 0.2 mL) and sodium linoleate (100 μM) in Tris–HCl buffer, pH 9.0 (2.7 mL). The reaction was followed for 7 min at 28 °C, recording the absorbance of a conjugated diene structure at 234 nm, due to the formation of 13-hydroperoxy-linoleic acid. […] For the estimation of the type of inhibition, the above experiments were repeated, using sodium linoleate at 1 mM, which is higher than the saturating substrate concentration.

[4] = test system: Triton WR1339 (tyloxapol)-induced hyperlipidemia; experiment: Triton WR1339 (tyloxapol)-induced hyperlipidemia in rats; format: in vivo, Wistar rats; conditions: 150 μmol/kg i.p., rat plasma, 24 h, tyloxapol 200 mg/kg i.p.
Procedure: The examined compounds (0.15 mmol/kg) were administered i.p. one hour later. Blood was taken from the aorta after 24 h, for the determination of plasma total cholesterol, LDL cholesterol and triglyceride concentration, using commercial kits.

SMILES	Inhibition of Lipid Peroxidation, percent at 50 μM ([1]; 50 μM compound)	Percent Interaction with DPPH ([2]; compound 25 μM)	Percent Interaction with DPPH ([2]; compound 50 μM)	Percent Interaction with DPPH ([2]; compound 100 μM)	Percent Interaction with DPPH ([2]; compound 200 μM)	inhibition in vivo at 150 µmol/kg [3]	pIC50 (soybean lipoxygenase 1-B)	% Reduction LDL-C (LDL cholesterol) [4]	% Reduction TC (total cholesterol) [4]	% Reduction TG (triglycerides) [4]	Inhibition of Lipid Peroxidation, percent at 1 mM ([1]; 1 mM compound)	Inhibition of Lipid Peroxidation, percent at 100 μM ([1]; 100 μM compound)
CCOC(=O)C(COC(=O)C(C)c1ccc(CC(C)C)cc1)NC(=O)/C=C/c1cc(C(C)(C)C)c(O)c(C(C)(C)C)c1 (stereo not drawn) [Compound 9, (E)-ethyl 2-(3-(3,5-di-tert-butyl-4-hydroxyphenyl)acrylamido)-3-((2-(4-isobutylphenyl)propanoyl)oxy)propanoate]	20%/50 μM	15.5%	31.8%	58.0%	90.9%	52%	4.10	70% and 70.1 * %	61% and 61.2 ** %	52% and 52.1 ** %	–	–
CCOC(=O)C(COC(=O)C(C)c1cccc(C(=O)c2ccccc2)c1)NC(=O)c1cc(C(C)(C)C)c(O)c(C(C)(C)C)c1 (stereo not drawn) [Compound 11, Ethyl 3-((2-(3-benzoylphenyl)propanoyl)oxy)-2-(3,5-di-tert-butyl-4-hydroxybenzamido)propanoate]	–	–	–	–	lower than 10%	67%	4.07	51.2 ** %	57.6 ** %	44.5 * %	30%/1 mM	–
CCOC(=O)C(COC(=O)C(C)c1cccc(C(=O)c2ccccc2)c1)NC(=O)/C=C/c1cc(C(C)(C)C)c(O)c(C(C)(C)C)c1 (stereo not drawn) [Compound 12, (E)-ethyl 3-((2-(3-benzoylphenyl)propanoyl)oxy)-2-(3-(3,5-di-tert-butyl-4-hydroxyphenyl)acrylamido)propanoate]	–	20.0%	24.7%	53.8%	94.0%	59%	4.05	56.2 * %	53.4 ** %	33.2 * %	–	20%/100 μM
